The source of these data is US20250387359A1, “COMPOUNDS AND METHODS FOR THE TREATMENT OF PARASITIC INFECTIONS” (THE BOARD OF TRUSTEES OF THE UNIVERSITY OF ILLINOIS, priority 2019, published 2025).

Read-outs that look alike come from different tables or passages of the source.

The target in assay [1] is T1, recombinant CpLDH protein (Cryptosporidium parvum, UniProt Q9GT92, F198L/K295E/R251K). To be noted: previous studies; cited from earlier work.
For assay [2], the target named is T1, recombinant CpLDH protein. Description: CpLDH enzyme kinetics on substrates and co-factors. It counts as biochemical. The protocol: Biochemical assays. The coding sequence of CpLDH was cloned from cDNA prepared from the AUCP-1 isolate of C. parvum, and the His-tagged CpLDH recombinant protein expressed in Escherichia coli, and purified in native form essentially as previously described (Int. J. Parasitol. 2017; 47(13), 867-874). Briefly, cDNA was prepared from total RNA extracted from the AUCP-1 isolate of C. parvum, and the coding sequencing of CpLDH (Genebank accession number AF274310.1) was PCR-amplified from the cDNA using a primer pair with a XhoI restriction site and a BamHI site. The PCR amplicon was cloned at the XhoI/BamHI site of the pET15b expression vector in-frame with the hexahistidine (His-tag) at the N-terminal and sequenced to confirm identity. The recombinant expression vector was transformed into protein expression E. coli BL21-CodonPlus-DE3-RIL (Stratagene). Transformed E. coli was cultured at 37° C. in Luria broth medium (supplemented with 100 μg/ml ampicillin and 34 μg/ml chloramphenicol) to an A600 of 0.8 followed by addition of 1 mM isopropyl-β-d-thiogalactopyranoside to induce protein expression. The expression E. coli was harvested and lysed under native conditions by sonicating in lysis buffer (50 mM NaH2PO4, 300 mM NaCl, 10 mM Imidazole, pH 8.0) containing a 1× EDTA-free protease inhibitor cocktail, 600 units benzonase and 30 kU lysozyme (EMD Millipore). The lysate was clarified by centrifugation and the His-tagged recombinant protein purified under native conditions by nickel-affinity chromatography according to the manufacturer's instructions (Novagen). The wash buffer used contained 50 mM NaH2PO4, 300 mM NaCl and 20 mM Imidazole, pH 8.0, while the elution buffer was composed of 50 mM NaH2PO4, 300 mM NaCl, 250 mM Imidazole, pH 8.0. The eluate was dialyzed using a buffer containing 5 mM Hepes-KOH (pH 7.8) and 0.5 mM DTT. The purity of the recombinant protein was determined by SDS/PAGE, and the concentration measured using a Qubit 3.0 fluorometer (Life technologies). […] On the other hand, the catalytic activity of CpLDH recombinant protein for the oxidation of lactate to pyruvate was determined by measuring the change in optical density of a 100 μl reaction mixture containing 100 mM lactate, 1 mM NAD^+, 100 mM Tris, pH 9.2, with varying concentrations of CpLDH recombinant protein at 25° C. […] In all assays, reaction mixtures without recombinant CpLDH protein were included as negative controls. All assays were performed in triplicate and repeated at least thrice. The change in optical density was measured every 15 seconds for a total of 2 minutes using a Spectra Max 384 Plus plate reader (Molecular Devices) at a wavelength of 340 nm.

Assay [3] addresses T1, recombinant CpLDH protein. The settings on record: reported by Zhang et al., PLoS Pathog. 2015; cited from earlier work.
Assay [4] relates to C. parvum. The assay is described as follows: Real-time PCR quantification of C. parvum DNA in fecal samples of infected mice. It counts as in vivo, Cryptosporidium parvum. The settings on record: paromomycin 100 mg/kg; for fecal C. parvum DNA load: Table 6, infected mice, multiplier printed in next cell. The protocol:
In vivo testing of the anti-Cryptosporidium effect of CpLDH inhibitors. Gamma interferon knockout mice (B6.129S7-Ifng), 8 weeks of age, were purchased from Charles River, USA. The care and use of the mice was done following the guidelines of protocol number 17024 approved by the University of Illinois at Urbana-Champaign, USA. The animals were allowed to acclimatize for 1 week before experiments commenced. Stock solutions of recombinant CpLDH inhibitors reconstituted in DMSO were diluted in sterile distilled water to reduce the final amount of DMSO in the solution to less than 1% (v/v) before administering them to mice. Prior to testing the anti-Cryptosporidium effect of the inhibitors in mice, the tolerability of each inhibitor was tested by oral gavage using varying dosages (100-2000 mg/kg body weight) of each inhibitor in groups of mice (three mice for each dose) daily for 7 days. Mice were observed daily for signs of toxicity including changes from normal physical activity, respiration, body temperature, feeding, posture, fur condition or occurrence of death. […] The subsequent dosages of NSC10447 used in the mice infection assays were 250, 500 and 1000 mg/kg mouse body weight, while the NSC158011 dosages used were 100, 200 and 400 mg/kg mouse body weight. Mice were allocated to groups as follows: “Infected plus inhibitor treatment”; “Infected minus inhibitor treatment”; “Uninfected minus inhibitor treatment” and “Infected plus paromomycin treatment”. Each group contained at least three mice. Each mouse in the infection groups received 5,000 C. parvum oocysts (resuspended in 50 μl of PBS) by oral gavage. Mice were housed individually in cages lined with sterile gauze as bedding. One day post-infection (PI), daily oral gavage administration of recombinant CpLDH inhibitor or paromomycin commenced and continued for a total of 7 days. Untreated mice received an equivalent volume of sterile distilled water (containing DMSO equivalent to the amount administered in the inhibitor-treated group) by oral gavage. Fecal pellets were collected daily from each cage and placed in individual sterile 15 ml conical tubes. An equivalent volume of PBS containing a cocktail of penicillin (100 units/ml), streptomycin (100 μg/ml), chloramphenicol (34 μg/ml) and amphotericin (0.25 μg/ml) was added to the fecal samples and stored at 4° C. until use for quantification of C. parvum genomic DNA load. Three independent replicate infection assays were performed. At 9 days PI, mice were euthanized and 5 cm of the distal small intestine resected 2 cm anterior to the cecum and immediately submerged in 4% buffered formalin. The intestinal tissues were submitted for histopathology to the Veterinary Diagnostic Laboratory at the University of Illinois at Urbana-Champaign. Briefly, intestinal tissues preserved in 4% buffered formalin were washed in 70% ethanol and embedded in 1% agar and then processed for paraffin embedding. For hematoxylin and eosin staining, five μm transverse and cross sections were cut and processed and stained following standard procedures of the Veterinary Diagnostic Laboratory. Sections were imaged using a Zeiss microscope and images captured with a color camera.
Quantification of C. parvum shed in mice feces. Genomic DNA was extracted from individual fecal samples collected from mice at different days as described above. For each sample, 220 mg of homogenized feces were used to extract genomic DNA using the QIAamp PowerFecal DNA Kit (Qiagen, USA) following the manufacturer's instructions. Quantification of the amount of C. parvum 18s rRNA gene (GenBank accession number AF164102) was performed essentially as described previously (Int. J. Parasitol. 2018; 48(8), 649-656). Briefly, primers were used to generate a 240 bp amplicon from C. parvum genomic DNA by conventional PCR. […]
For orientation: Real-time PCR tracks product formation cycle by cycle.

The test system of assay [5] is Cryptosporidium parvum. To be noted: previously reported by others; read-out: IC50, inhibition of C. parvum growth in HCT-8 cells; cited from earlier work.
For assay [6], the system named is C. parvum. The assay is described as follows: Histopathology of distal small intestine of C. parvum infected mice. It is filed as in vivo, Cryptosporidium parvum. To be noted: lower small intestine, H&E, NSC158011 400 mg/kg, NSC10447 250, 500 or 1000 mg/kg, paromomycin 100 mg/kg. The method, then: In vivo testing of the anti-Cryptosporidium effect of CpLDH inhibitors. Gamma interferon knockout mice (B6.129S7-Ifng), 8 weeks of age, were purchased from Charles River, USA. The care and use of the mice was done following the guidelines of protocol number 17024 approved by the University of Illinois at Urbana-Champaign, USA. The animals were allowed to acclimatize for 1 week before experiments commenced. Stock solutions of recombinant CpLDH inhibitors reconstituted in DMSO were diluted in sterile distilled water to reduce the final amount of DMSO in the solution to less than 1% (v/v) before administering them to mice. Prior to testing the anti-Cryptosporidium effect of the inhibitors in mice, the tolerability of each inhibitor was tested by oral gavage using varying dosages (100-2000 mg/kg body weight) of each inhibitor in groups of mice (three mice for each dose) daily for 7 days. Mice were observed daily for signs of toxicity including changes from normal physical activity, respiration, body temperature, feeding, posture, fur condition or occurrence of death. […] The subsequent dosages of NSC10447 used in the mice infection assays were 250, 500 and 1000 mg/kg mouse body weight, while the NSC158011 dosages used were 100, 200 and 400 mg/kg mouse body weight. Mice were allocated to groups as follows: “Infected plus inhibitor treatment”; “Infected minus inhibitor treatment”; “Uninfected minus inhibitor treatment” and “Infected plus paromomycin treatment”. Each group contained at least three mice. Each mouse in the infection groups received 5,000 C. parvum oocysts (resuspended in 50 μl of PBS) by oral gavage. Mice were housed individually in cages lined with sterile gauze as bedding. […] An equivalent volume of PBS containing a cocktail of penicillin (100 units/ml), streptomycin (100 μg/ml), chloramphenicol (34 μg/ml) and amphotericin (0.25 μg/ml) was added to the fecal samples and stored at 4° C. until use for quantification of C. parvum genomic DNA load. […]

Assay [7] concerns Cryptosporidium parvum. Description: In vitro anti-Cryptosporidium effect in HCT-8 cells (immunofluorescence assay). It is filed as cell-based. To be noted: Cryptosporidium parvum, HCT-8 cells, positive control, read-out: IC50, inhibition of C. parvum growth. The protocol: In vitro testing of the anti-Cryptosporidium effect of CpLDH inhibitors. HCT-8 cells were cultured in supplemented RPMI-1640 medium in 96-well plates. When the cells were confluent, old medium was replaced with fresh medium. To one set of wells, varying concentrations of recombinant CpLDH inhibitors (reconstituted in DMSO and diluted in RPMI medium) were added, while another set was left without inhibitors. Paromomycin was used as a positive control drug reconstituted in distilled sterile water. Then, 4×10^4 freshly excysted sporozoites were added to each well and incubated at 37° C. with 5% CO2. After 2 h incubation, varying concentrations of CpLDH inhibitors were added to the set of infected cells that were not treated initially. Control infected cells without inhibitors, but with added DMSO volumes equivalent to those used in the wells with inhibitors, were included. The cells were maintained in culture for a total of either 48 h or 72 h and processed for immunofluorescence assay as previously described (Int. J. Parasitol. 2017; 47(13), 867-874). Briefly, medium was decanted, and the cells fixed with methanol-acetic acid (9:1) for 2 minutes at room temperature. The cells were rehydrated and permeabilized by two successive washes with buffer (0.1% Triton X-100, 0.35 M NaCl, 0.13 M Tris-base, pH 7.6) and blocked with 5% normal goat serum, followed by staining with antibody to C. parvum (SporoGlo; Waterborn, Inc.) overnight at 4° C. The stained cells were washed twice with PBS, followed by water, and then imaged with an inverted fluorescence microscope. Fluorescence quantification was done using ImageJ version 1.37v software (NIH). Assays were performed in triplicate and repeated at least thrice.

Setting [8] is: pyruvate/NADH: reduction, lactate/NAD+: oxidation.

T1 sequence (Q9GT92 whole entry F198L/K295E/R251K): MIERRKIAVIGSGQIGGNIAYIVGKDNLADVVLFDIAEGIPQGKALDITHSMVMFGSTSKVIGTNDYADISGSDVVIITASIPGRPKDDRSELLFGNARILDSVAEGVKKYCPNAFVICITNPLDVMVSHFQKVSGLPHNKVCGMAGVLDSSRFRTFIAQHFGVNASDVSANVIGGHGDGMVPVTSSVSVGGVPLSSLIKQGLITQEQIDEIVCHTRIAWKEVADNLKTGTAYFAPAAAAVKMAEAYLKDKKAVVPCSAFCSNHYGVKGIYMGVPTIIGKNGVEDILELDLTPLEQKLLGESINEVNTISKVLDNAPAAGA

In the case of `CCCc1c(O)c(O)c(C(=O)O)c2cc(Cc3ccccc3)c(C)cc12` [FX11], in assay [1], the “inhibition of the enzymatic activity of CpLDH” value is reported as “able to inhibit the enzymatic activity of CpLDH”.
As usually defined, the Km is the concentration of substrate that gives half-maximal velocity. With `NC(=O)c1ccc[n+]([C@@H]2O[C@H](COP(=O)([O-])OP(=O)(O)OC[C@H]3O[C@@H](n4cnc5c(N)ncnc54)[C@H](O)[C@@H]3O)[C@@H](O)[C@H]2O)c1` [NAD^+], the Km in assay [2] (pyruvate/NADH: reduction of pyruvate to lactate, lactate/NAD+: oxidation of lactate to pyruvate, 25° C., read-out: Km) is 56 µM. For the same compound, in assay [2] (setting [8]), the Kcat turned out to be 0.11 s⁻¹ and the Vmax is 0.07 nmol⁻¹ µg⁻¹ min⁻¹. For the same compound, in assay [3], the Kcat result was “(0.70)* s^−1”, the Km is 62 µM and the Vmax entry is “(0.56)* nmol^−1 · μg^−1 · min^−1”.
One may read the IC50 as the concentration needed to halve the response being measured. Turning to `NC[C@@H]1O[C@H](O[C@H]2[C@@H](O)[C@H](O[C@@H]3[C@@H](O)[C@H](N)C[C@H](N)[C@H]3O[C@H]3O[C@H](CO)[C@@H](O)[C@H](O)[C@H]3N)O[C@@H]2CO)[C@H](N)[C@@H](O)[C@@H]1O` [paromomycin, reference compound], the “fecal C. parvum DNA load” value in the assay with C. parvum [4] (DPI 1) was 3.1 ± 0.2 ×10^−10 ng/μL; in the assay on C. parvum [4] (DPI 2), 6.6 ± 0.5 ×10^−9 ng/μL; with C. parvum [4] (DPI 3), 5.2 ± 0.3 ×10^−9 ng/μL; with C. parvum [4] (DPI 4) it was 4.7 ± 0.2 ×10^−8 ng/μL; with C. parvum [4] (DPI 5), 5.0 ± 0.6 ×10^−7 ng/μL; in the assay with C. parvum [4] (DPI 6), 4.8 ± 0.1 ×10^−6 ng/μL. In addition, the “fecal C. parvum DNA load” value is 5.1 ± 0.8 ×10^−6 ng/μL in the assay with C. parvum [4] (DPI 7) and 5.4 ± 0.1 ×10^−6 ng/μL with C. parvum [4] (DPI 8). The “reduction of shedding of C. parvum in mice feces vs untreated infected mice” value in the assay with C. parvum [4] (day 7 post-infection) is “about 3000 fold”. The IC50 in the assay with Cryptosporidium parvum [5] is 711 µM; in the assay with Cryptosporidium parvum [7] (48 h post-infection), 450 µM; in the assay with Cryptosporidium parvum [7] (72 h post-infection), 400 µM. The “histopathology of intestinal epithelium and villi” value in the assay with C. parvum [6] is given as “intact intestinal epithelium with prominent villi”.
